Results taken from patent US20260297092A1, “PYRAZOLOPYRIMIDINE DERIVATIVES AS INHIBITORS OF NLRP3” (Takeda Pharmaceutical Company Limited, priority 2023, published 2026).

Key:
[1] = test system: TNF-α (NF-κB pathway, THP-1 cells); test: TNF-α Assay (IC50); format: cell-based, human; settings: Homo sapiens, 600 ng/mL LPS, 3 hours
Method: TNF-α Assay (Reported as IC50)
Monocytic THP-1 cells (ATCC: TIB-202) were maintained in accordance with the provider's instructions in RPMI media (Life Technologies, Cat #A10491-01); RPMI was supplemented with 10% heat inactivated fetal bovine serum (Hyclone Cat #SH30396.03). The cells were differentiated into macrophages by the addition of 25 ng/mL IFN-7 for 24 hours at 37° C./5% CO2. Media was exchanged with fresh media with no FBS. The cells were plated at 40,000 cells per well in 384-well flat-bottom cell culture plates (Costar 3764) containing compounds (added in 1:1000) in a 1:3.16 serial dilution series in DMSO and were incubated for 30 minutes at 37° C./5% CO2. The NF-κB pathway was activated with the addition of 600 ng/mL LPS and the cells were incubated for 3 hours at 37° C./5% CO2. At the end of the incubation period, supernatant ([…]) was removed, and TNF-alpha were monitored using an ELISA (Human TNF-α ELISA, R&D systems, Cat #DY210) according to the manufacturer's instructions. 100% inhibition is determined with positive control, TPCA-1.
The IC50 values in the TNF-α assay were calculated from a plot of percentage of inhibition versus the inhibitor concentration by a logistics curve fit according to: Y=[Bottom+(Top−Bottom)]/(1+10^[(Log IC50−X)·Hill Slope], where Y was the […] at the inhibitor concentration, X, “Bottom” was the lowest inhibition value, i.e., 0%, “Top” was the maximum inhibition value, i.e., 100%, and the “Hill Slope” described the slope of the sigmoidal curve between the “Bottom” and “Top” values. The curve fitting was conducted with internally developed software.

[2] = test system: NLRP3 inflammasome (IL-1β production in THP-1 cells); test: IL-1β TR-FRET Assay (percentage of inhibition at 300 nM, 6 μM or 10 μM); format: cell-based, human; settings: Homo sapiens, LPS priming, ATP activation; for inhibition at 0.3 µM: THP-1, 300 nM, read-out: IL-1β inhibitory rate at 300 nM (%); for inhibition at 6 µM: THP-1, 6 μM, read-out: IL-1β inhibitory rate at 6 μM (%); for inhibition at 10 µM: THP-1, 10 μM, read-out: IL-1β inhibitory rate at 10 μM (%)
Method in brief: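 THP-1 cells were differentiated with 25 ng/mL IFN-γ for 24 h, primed with 50 ng/mL LPS in serum-free medium for 24 h, then given compound for 30 min before 20 mM ATP for 2 h. Supernatant IL-1β was measured by HTRF after 16-24 h at room temperature. Inhibition was normalized between DMSO (high) and 3 μM MCC-950 (low).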

SMILES	IC50 [1] [µM]	inhibition at 0.3 µM [2] [%]	inhibition at 6 µM [2] [%]	inhibition at 10 µM [2] [%]
CO[C@H]1CCCC[C@@H]1c1nc2nn(-c3c(C)cc(C)cc3O)cc2c(=O)[nH]1 (racemic) [Example 36, racemic mixture of 2-(2-hydroxy-4,6-dimethylphenyl)-6-[(1R,2S)-2-methoxycyclohexyl]-2,5-dihydro-4H-pyrazolo[3,4-d]pyrimidin-4-one and 2-(2-hydroxy-4,6-dimethylphenyl)-6-[(1S,2R)-2-methoxycyclohexyl]-2,5-dihydro-4H-pyrazolo [3,4-d]pyrimidin-4-one]	> 30	97	–	–
CCOc1nc2nn(-c3c(C)cc(C4CC4(F)F)cc3F)cc2c(=O)[nH]1 (racemic) [Example 112, 2-[4-(2,2-difluorocyclopropyl)-2-fluoro-6-methylphenyl]-6-ethoxy-2,5-dihydro-4H-pyrazolo[3,4-d]pyrimidin-4-one]	> 30	98	–	–
Cc1cc(C2CC2)cc(C)c1-n1cc2c(=O)[nH]c(C3(C#N)CC3)nc2n1 [Example 318, 1-[2-(4-cyclopropyl-2,6-dimethylphenyl)-4-oxo-4,5-dihydro-2H-pyrazolo[3,4-d]pyrimidin-6-yl]cyclopropane-1-carbonitrile]	–	–	98	–
COCc1nc2nn(-c3c(C(F)F)cc(C4CC4)c(C4CC4)c3C)cc2c(=O)[nH]1 [Example 320, 2-[3,4-dicyclopropyl-6-(difluoromethyl)-2-methylphenyl)-6-(methoxymethyl)-2,5-dihydro-4H-pyrazolo[3,4-d]pyrimidin-4-one]	–	–	94	–
COCc1nc2nn(-c3c(C)cc(C4CC4)cc3CC(F)F)cc2c(=O)[nH]1 [Example 323, 2-[4-cyclopropyl-2-(2,2-difluoroethyl)-6-methylphenyl]-6-(methoxymethyl)-2,5-dihydro-4H-pyrazolo[3,4-d]pyrimidin-4-one]	–	–	103	–
Cc1cc(C2CC2)cc(C(F)F)c1-n1cc2c(=O)[nH]c([C@H]3COCCO3)nc2n1 [Example 325, 2-[4-cyclopropyl-2-(difluoromethyl)-6-methylphenyl]-6-[(2R)-1,4-dioxan-2-yl]-2,5-dihydro-4H-pyrazolo[3,4-d]pyrimidin-4-one or 2-[4-cyclopropyl-2-(difluoromethyl)-6-methylphenyl]-6-[(2S)-1,4-dioxan-2-yl]-2,5-dihydro-4H-pyrazolo[3,4-d]pyrimidin-4-one]	–	–	–	100
Cc1cc(C2CC2)cc(C(F)F)c1-n1cc2c(=O)[nH]c([C@@H]3COCCO3)nc2n1 [Example 326, 2-[4-cyclopropyl-2-(difluoromethyl)-6-methylphenyl]-6-[(2S)-1,4-dioxan-2-yl]-2,5-dihydro-4H-pyrazolo[3,4-d]pyrimidin-4-one or 2-[4-cyclopropyl-2-(difluoromethyl)-6-methylphenyl]-6-[(2R)-1,4-dioxan-2-yl]-2,5-dihydro-4H-pyrazolo[3,4-d]pyrimidin-4-one]	–	–	–	111

The next lines start with results.

IC50 [1] [µM]	SMILES	inhibition at 0.3 µM [2] [%]	inhibition at 6 µM [2] [%]	inhibition at 10 µM [2] [%]
3.4	CO[C@@H]1CCCC[C@@H]1c1nc2nn(-c3c(C)cc(C)cc3O)cc2c(=O)[nH]1 (racemic) [Example 12, racemic mixture of 2-(2-hydroxy-4,6-dimethylphenyl)-6-[(1R,2R)-2-methoxycyclohexyl]-2,5-dihydro-4H-pyrazolo[3,4-d]pyrimidin-4-one and 2-(2-hydroxy-4,6-dimethylphenyl)-6-[(1S,2S)-2-methoxycyclohexyl]-2,5-dihydro-4H-pyrazolo[3,4-d]pyrimidin-4-one]	99	–	–
> 30	Cc1ccc(-n2cc3c(=O)[nH]c(OCC(C)O)nc3n2)c(C)c1 (racemic) [Example 89, 2-(2,4-dimethylphenyl)-6-(2-hydroxypropoxy)-2,5-dihydro-4H-pyrazolo[3,4-d]pyrimidin-4-one]	79	–	–
> 30	Cc1ccc(-n2cc3c(=O)[nH]c(OCC(C)OCc4ccccc4)nc3n2)c(C)c1 (racemic) [Example 99, 6-[2-(benzyloxy)propoxy]-2-(2,4-dimethylphenyl)-2,5-dihydro-4H-pyrazolo[3,4-d]pyrimidin-4-one]	41	–	–
